# Results reported in US20110136868A1, “AGENTS FOR INHIBITING OSTEOCLASTOGENESIS AND/OR OSTEOCLAST ACTIVATION” (University of Oxford, priority 2009, published 2011).
# “Also recorded” adds a separate entry of the source.
# Assays:
# [1] = system: Mouse bone marrow cells; assay: in vitro RANKL-dependent osteoclastogenesis, TRAP positive osteoclast count; type: cell-based
# Experimental: Cultures on plastic plates were fixed and stained for TRAP (tartrate resistant acid […]). TRAP positive multi-nuclear (>3 nuclei) osteoclast cells were counted.
# B. Mouse bone marrow cells were cultured in the presence of 25 ng/ml M-CSF with 50 ng/ml RANKL in 48-well plates. On day 3 d-PDMP (1.25, 5 or 20 μM), NB-DNJ, NB-DGJ, or N-OD-DNJ (5, 50, or 500 μM) were added. Cells were cultured for another 24 hours before fixed and stained for TRAP. TRAP positive osteoclast cells mature were counted on day 4 (left). Morphology of 4 day osteoclasts.
# [2] = system: RAW 264.7 murine macrophage cells; assay: Association of TRAF6 and Src with lipid rafts, sucrose gradient fractionation; type: cell-based; settings: 50 ng/ml RANKL, 4 days
# Experimental: Localization of TRAF6, […] GM1 gangliosides in lipid rafts (fraction 3-5) or non-raft fractions (fraction 7-9) in RAW 264.7 murine macrophage cells were cultured in medium only (control), in the presence of 50 ng/ml RANKL or RANKL+NB-DNJ in 48-well plates for 4 days. Cell lysates were prepared and separated using discontinuous sucrose gradient ultracentrifugation. A total of 9 fractions (1 ml each) were collected from the top to the bottom of the gradients, fraction 2 to 5 were positive for GM1 gangliosides, i.e. contained lipid rafts. The non-raft fractions were 7 to 9. Without RANKL, TRAF6 localises in the non-raft fraction while Src is presented in both raft and nonraft fractions. After RANKL treatment, TRAF6 was detected in raft fraction and Src almost totally shifted into the raft fractions.
# [3] = system: α-glucosidase; settings: Platt et al. 1994; cited from earlier work
# [4] = system: human, monocyte-derived OC; assay: RANKL- and M-CSF-dependent development of human monocyte-derived OC; type: cell-based; settings: added either in the beginning or during OC differentiation cultures
# [5] = system: MAPK signaling (ERK, p38, JNK); assay: MAPK signalling during osteoclastogenesis, immunoblot pERK1/2, pP38, pJNK after RANKL or M-CSF; type: cell-based, mouse; settings: BMCs day 3, serum starved overnight
# Experimental: (§1) BMCs were cultured to day 3 then starved in 0.5% serum medium overnight. Cells were treated with RANKL (A) or M-CSF (B) for the time points indicated and then immunoblotted with α-pERK1/2, α-pP38, α-pJNK antibodies. Membranes were stripped and restained with α-ERK, α-P38, α-JNK antibodies. […] Overnight serum starved OC were treated as indicated as subsequently stained with anti-NFATc1 and viewed by immunofluorescent microscopy. NB-DNJ abrogated the M-CSF+RANKL-induced accumulation of NFAtc1 in the nyclei. (D) BMCs were cultured 48 h with different combination of M-CSF, RANKL and NB-DNJ. Cells were collected and nuclear protein extracted and NFATc1 expression was checked by Western blot. Staining of histone-1 served as loading control.
# [6] = system: β-glucosidase; settings: Platt et al. 1994; cited from earlier work
# [7] = system: MAPK signaling (ERK, p38, JNK); assay: GM3-induced ERK, P38, JNK phosphorylation in OC, immunoblot; type: cell-based, mouse
# Experimental: D. OC were cultured with M-CSF+RANKL to day 3 then starved in 0.5% serum medium overnight. Cells were treated with GM3 or GM3+NB-DNJ for the time points indicated and then immunoblotted with α-pERK1/2, α-pP38, α-pJNK antibodies. Membranes were stripped and restained with α-ERK, α-P38, α-JNK antibodies.
# [8] = system: osteoclast activation; assay: in vivo alpha-galactosylceramide-induced OC activation, serum CTX levels; design: species or system C57BL/6 mice
# Experimental: NB-DNJ (500 mg/Kg) or PBS were injected intraperitoneal (i.p.) once a day for 6 consecutive days in 8 wk old C57BL/6 mice. Alpha-galactosylceramide or PBS was administered by a single i.p. injection of 2 μg on day 3. Serum collected on day 7 was used to determine carboxyterminal cross-linking telopeptide of type 1 collagen (CTX) levels (n=4-5 8 wk old female C57BL/6 mice).
# [9] = system: NFATc1; assay: NFATc1 nuclear accumulation in OC (immunofluorescence, Western blot of nuclear protein); type: cell-based, mouse
# Experimental: as §1
# [10] = system: osteoclast activation; assay: in vivo RANKL-induced OC activation, serum CTX levels; design: species or system mice; settings: NB-DNJ 500 mg/Kg i.p. daily, RANKL 4 mg/day i.p. from day 3
# [11] = target: T1, ceramide glucosyltransferase (CGT) (Homo sapiens, UniProt Q16739); settings: literature; cited from earlier work
# T1 sequence (Q16739 1-394): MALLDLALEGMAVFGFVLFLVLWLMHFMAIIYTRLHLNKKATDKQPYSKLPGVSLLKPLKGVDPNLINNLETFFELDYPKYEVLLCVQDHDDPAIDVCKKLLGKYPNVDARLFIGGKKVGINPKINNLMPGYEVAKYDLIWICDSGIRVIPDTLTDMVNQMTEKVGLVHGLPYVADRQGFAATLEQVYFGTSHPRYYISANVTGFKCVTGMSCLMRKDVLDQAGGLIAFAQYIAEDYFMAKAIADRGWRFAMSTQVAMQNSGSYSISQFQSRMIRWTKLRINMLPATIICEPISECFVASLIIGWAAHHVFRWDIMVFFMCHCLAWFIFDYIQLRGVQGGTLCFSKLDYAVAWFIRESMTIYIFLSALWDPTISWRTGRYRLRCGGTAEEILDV
# [12] = system: osteoclast formation; settings: Iwamoto et al. 2001, cited from earlier work
# [13] = system: Mouse bone marrow cells; assay: Promotion of osteoclastogenesis by GM3 and IGF-1 with M-CSF and RANKL, TRAP positive mature osteoclast count; type: cell-based
# Experimental: A. Mouse bone marrow cells were cultured in the presence of 25 ng/ml M-CSF with 50 ng/ml RANKL and GM3 (0.05, 0.5 or 5 μM) in 48-well plates for 4 days. Cultures on plastic plates were fixed and stained for TRAP. TRAP positive mature osteoclast cells were counted.
# As well as RANKL+M-CSF, IGF-1 at the indicated concentrations was added.
# C. […] OC were developed in the presence of RANKL+M-CSF (control), or these two cytokines plus IGF-1, GM3 or IGF-1+GM3.
molecule,measurement,setting,value
"CCCCN1C[C@H](O)[C@@H](O)[C@@H](O)[C@H]1CO [NB-DGJ, N-butyl-deoxygalactonojirimycin]",reduction in OC activation compared with NB-DNJ,[1],significantly less potent
"CCCCN1C[C@H](O)[C@@H](O)[C@H](O)[C@H]1CO [NB-DNJ, N-butyl-deoxynojirimycin]",RANKL-induced localisation of TRAF6 and Src in lipid rafts,[2],TRAF6 and Src are excluded from the rafts
same,α-glucosidase inhibitory activity,[3],have both α- and β-glucosidase inhibitory activities
same,inhibition of RANKL- and M-CSF-dependent development of human monocyte-derived OC,[4],"inhibit RANKL- and M-CSF-dependent development of murine as well as human, monocyte-derived OC in a dose dependent manner"
same,"RANKL- and M-CSF-dependent phosphorylation of ERK, JNK and p38",[5],"phosphotylation of p38 and to a lesser extend of ERKa,d Jnk is observed; also recorded: significantly reduced"
same,β-glucosidase inhibitory activity,[6],have both α- and β-glucosidase inhibitory activities
same,inhibition of RANKL- and M-CSF-dependent development of murine OC,[1]; added either in the beginning or during OC differentiation cultures,"inhibit RANKL- and M-CSF-dependent development of murine as well as human, monocyte-derived OC in a dose dependent manner"
same,"GM3-promoted phosphorylation of ERK, P38 and JNK, effect of NB-DNJ",[7],abrogated
same,"serum CTX levels, αGC-induced OC activation","[8]; NB-DNJ 500 mg/Kg i.p. daily plus alpha-galactosylceramide 2 μg i.p. day 3, serum day 7",inhibits a-galactosylceramide-induced OC activation; also recorded: returned to baseline
same,"serum CTX levels, NB-DNJ only","[8]; mice receiving only NB-DNJ, p>0.05",not significantly different to vehicle controls
same,nuclear NFATc1 expression,"[9]; Western blot, BMCs cultured 48 h with M-CSF, RANKL",Considerably less nuclear NFTc1
same,M-CSF+RANKL-induced accumulation of NFATc1 in the nuclei,"[9]; immunofluorescent microscopy, serum starved OC",abrogated; also recorded: reduced localisation of NFATc in the nucleus
same,"serum CTX levels, RANKL-induced OC activation",[10],inhibits RANKL-induced OC activation
"CCCCCCCCCC(=O)N[C@H](CN1CCOCC1)[C@H](O)c1ccccc1 [d-PDMP, D-threo-1-phenyl-2-decanoylamin-3-morpholino-1-propanol]",inhibitory effect on CGT,[11],known CGT inhibitor
same,inhibition of osteoclast formation / OC development,[12],can inhibit the osteoclast formation; also recorded: can prevent OC development
same,reduction in OC activation compared with NB-DNJ,[1],as effective
"CCCCCCCCCCCCCCCCCCCCCCCCCC(=O)N[C@@H](CO[C@H]1O[C@H](CO)[C@H](O)[C@H](O)[C@H]1O)[C@H](O)[C@H](O)CCCCCCCCCCCCCC [αGC, alpha-galactosylceramide]",increase of serum CTX levels,"[8]; mice receiving αGC, p<0.01",~50%
IGF-1: growth factor known to promote myeloma growth and OC activation,osteoclastogenesis with IGF-1,[13]; RANKL+M-CSF plus IGF-1,promotes osteoclastogenesis
same,"OC maturation, GM3 plus IGF-1",[13]; RANKL+M-CSF plus IGF-1 and GM3,co-operates with GM3 in promoting osteoclastogenesis
lactosylceramide,effect on RANKL-dependent osteoclastogenesis,"[12]; exogenous, in vitro",synergistic effect
